Reference: patent US20240285634A1, “COMPOUND AND METHOD FOR TREATING CHEMOTHERAPY-ASSOCIATED GASTROINTESTINAL SIDE EFFECTS” (ONQUALITY PHARMACEUTICALS CHINA LTD., priority 2021, published 2024)
Counter-ions that a name gives are not always drawn.

Legend:
[1] = system: Chemotherapeutic agent-caused constipation models of Balb/c mice; assay: Relieving effect on constipation caused by a chemotherapeutic agent (Examples 202-364); format: in vivo
From the text: Construction of mouse animal models: Chemotherapeutic agent-caused constipation models of Balb/c mice were constructed according to the administration mode and frequency of the chemotherapeutic agent as shown in Table 4. […] Thus, chemotherapeutic agent-caused constipation models of mice are very good models to mimic constipation caused by the chemotherapeutic agent.
Balb/c mice were fed for 1 week, and then divided into groups. The experiment was divided into a control group, a chemotherapeutic agent group, and a group of the compound as shown in Formula I, each of which comprised 10 mice, to perform the administration experiment, for which the administration dosage, mode, time and frequency were shown in Table 4. The control group: being injected or intragastrically administered with the same solvent as that used in the group of the compound as shown in Formula I (the administration mode and time were shown in Table 4), and then being injected or intragastrically administered with the same solvent as that used in the chemotherapeutic agent group (the administration mode was shown in Table 4); the chemotherapeutic agent group: being injected or intragastrically administered with the same solvent as that used in the group of the compound as shown in Formula I (the administration mode and time was shown in Table 4), and then being injected or intragastrically administered with the chemotherapeutic agent (the type, administration mode and dosage were shown in Table 4); the group of the compound as shown in Formula I: being injected or intragastrically administered with the compound as shown in Formula I (the administration mode and time was shown in Table 4), and then being administered with the chemotherapeutic agent (the administration mode and dosage were shown in Table 4).
The feces reduction rate was calculated with reference to the method of Ji Eun Kim (Lab Anim Res. 2016 December; 32(4): 231-240.). Feces reduction rate (%)=(the control group−the chemotherapeutic agent group or the group of the compound as shown in Formula I)/the control group*100%
It is regarded as effective remission when the feces reduction rate of mice in the group of the compound as shown in Formula I is reduced compared with that in the chemotherapeutic agent group.
The feces amount of mice within 3 hours was observed and recorded every day. At the end of the experiment, the number of mice in the group of the compound as shown in Formula I whose feces reduction rate was lower than that of mice in the chemotherapeutic agent group was recorded. Table 4 lists various animal experiment combinations of chemotherapeutic agents and the compound as shown in Formula I, as well as the corresponding experimental results.

[2] = system: Balb/c mice, diarrhea caused by continuous administration of a chemotherapeutic agent; assay: Relieving effect on diarrhea caused by the continuous administration of a chemotherapeutic agent (Examples 365-384); format: in vivo; conditions: Fluorouracil (5-Fu) intraperitoneal injection 70 mg/kg once a day for 5 days, compound intraperitoneal injection 150 mg/kg single, cycle 9 days
From the text: Balb/c mice were fed for 1 week, and then divided into groups. The experiment was divided into a control group, a chemotherapeutic agent group, and a group of the compound as shown in Formula I, each of which comprised 10 mice, to perform the administration experiment, for which the administration dosage, mode, time and frequency were shown in Table 5. The control group: being injected or intragastrically administered with the same solvent as that used in the group of the compound as shown in Formula I (the administration mode and time were shown in Table 5), and then being injected or intragastrically administered with the same solvent as that used in the chemotherapeutic agent group (the administration mode was shown in Table 5); the chemotherapeutic agent group: being injected or intragastrically administered with the same solvent as that used in the group of the compound as shown in Formula I (the administration mode and time were shown in Table 5), and then being injected or intragastrically administered with the chemotherapeutic agent (the type, administration mode, time and dosage were shown in Table 5); the group of the compound as shown in Formula I: being injected or intragastrically administered with the compound as shown in Formula I (the administration mode and time were shown in Table 5), and then being administered with the chemotherapeutic agent (the type, administration mode, time and dosage were shown in Table 5).
The scoring of diarrhea can refer to the method of Akinobu Kurita (Cancer Chemother Pharmacol 2000; 46:211-20.), Grade 0): normal feces; Grade 1: mild diarrhea, the stools is slightly wet and soft; Grade 2: moderate diarrhea, loose stools and mild perianal contamination; Grade 3: severe diarrhea, watery stools and accompanied by severe perianal staining (see FIG. 1). It is regarded as effective remission when the diarrhea grading of mice in the group of the compound as shown in Formula I is reduced compared with the average diarrhea grading of mice in the chemotherapeutic agent group.
The diarrhea grading of mice was observed and recorded every day. At the end of the experiment, the number of mice in the group of the compound as shown in Formula I whose diarrhea grading was lower than that of mice in the chemotherapeutic agent group was recorded. Table 5 lists various animal experiment combinations of chemotherapeutic agents and the compound as shown in Formula I, as well as the corresponding experimental results. (Relative remission rate %=the number of mice in the group of the compound as shown in Formula I whose diarrhea has been effectively relieved/the total number of mice in the group of the compound as shown in Formula I*100%. The establishment rate of diarrhea model in the chemotherapeutic agent group was 50%-80%, that is, about 5-8 of 10 mice developed diarrhea during the experiment, and there were cases of individual mice death or not developing diarrhea.)

Row | Structure (SMILES) | Relative remission rate (%) ([1]; Example 315, Fluorouracil 125 (F) and irinotecan 240 (I) mg/kg intraperitoneal injection single, compound intraperitoneal injection 150 mg/kg single, 0.5 h before chemotherapeutic agent, cycle 10 days) | Relative remission rate (%) ([1]; Example 316, Fluorouracil 125 (F) and irinotecan 240 (I) mg/kg intraperitoneal injection single, compound intraperitoneal injection 150 mg/kg single, 4 h before chemotherapeutic agent, cycle 10 days) | Relative remission rate (%) ([1]; Example 317, Fluorouracil 125 (F) and irinotecan 240 (I) mg/kg intraperitoneal injection single, compound intraperitoneal injection 150 mg/kg single, 12 h before chemotherapeutic agent, cycle 10 days) | Relative remission rate (%) ([1]; Example 343, Fluorouracil 100 (F), oxaliplatin 5 (O), irinotecan 100 (I) and tetrahydrofolic acid 100 (L) mg/kg intravenous injection single, compound intraperitoneal injection 150 mg/kg single, 0.5 h before chemotherapeutic agent, cycle 8 days) | Relative remission rate (%) ([1]; Example 344, Fluorouracil 100 (F), oxaliplatin 5 (O), irinotecan 100 (I) and tetrahydrofolic acid 100 (L) mg/kg intravenous injection single, compound intraperitoneal injection 150 mg/kg single, 12 h before chemotherapeutic agent, cycle 8 days) | Relative remission rate (%) ([2]; Example 373, 2 h before chemotherapeutic agent) | Relative remission rate (%) ([2]; Example 374, 4 h before chemotherapeutic agent) | Relative remission rate (%) ([2]; Example 375, 8 h before chemotherapeutic agent) | Relative remission rate (%) ([1]; Example 353, Fluorouracil 100 (F), oxaliplatin 5 (O), irinotecan 100 (I) and tetrahydrofolic acid 100 (L) mg/kg intraperitoneal injection single, compound intraperitoneal injection 100 mg/kg single, 0.5 h before chemotherapeutic agent, cycle 7 days) | Relative remission rate (%) ([1]; Example 354, Fluorouracil 100 (F), oxaliplatin 5 (O), irinotecan 100 (I) and tetrahydrofolic acid 100 (L) mg/kg intraperitoneal injection single, compound intraperitoneal injection 100 mg/kg single, 12 h before chemotherapeutic agent, cycle 7 days) | Relative remission rate (%) ([1]; Example 357, Topotecan intraperitoneal injection 10 mg/kg single, compound oral administration 100 mg/kg single, 24 h before chemotherapeutic agent, cycle 14 days) | Relative remission rate (%) ([1]; Example 358, Topotecan intravenous injection 20 mg/kg single, compound oral administration 100 mg/kg single, 12 h before chemotherapeutic agent, cycle 14 days)
1 | CN1CCN(c2ccc(Nc3ncc4cc5n(c4n3)C3(CCCCC3)CNC5=O)nc2)CC1 [Compound I hydrochloride, Trilaciclib dihydrochloride] | 20 | 60 | 40 | 30 | 70 | 60 | 30 | 10 |  |  |  | 
2 | CC(C)N1CCN(c2ccc(Nc3ncc4cc5n(c4n3)C3(CCCCC3)CNC5=O)nc2)CC1 [Compound IV hydrochloride, Lerociclibdihydrochloride] |  |  |  |  |  |  |  |  | 20 | 60 | 30 | 70
